As to `CN(C)C=CC(=O)c1cccc(OCC(O)CN2CCN(c3ccc(Cl)cc3)CC2)c1` (configuration not stated), the melting point was 144 to 145 °C. Molecule `CCOC(=O)c1cc(Cl)n2nc(C)nc2n1` came in with a melting point of 134 to 136 °C. As for `CCCCCCSC(=S)N1Cc2[nH]c3ccccc3c2CC1CO` (configuration not stated), the figure is 102 to 106 °C; as for `CCCOc1ccc(CO)nc1OCc1ccccc1`, 50 to 51 °C; as for `O=c1nc(Nc2ccc(Br)cc2)sc2ncccc12`, 274 to 275 °C. Next, `CC1=C2c3c(cnc4cc(Cl)ccc34)NC2CCN1` (configuration not stated): 209 to 212 °C; `Nc1ccc(Cl)nc1I`: 148 °C; `CCCC(=O)Nc1cnc2cccnc2c1O`: > 360 °C. The molecule `COc1ccccc1C=C1NC(=O)N(C)C1=O` came in with a melting point of 189 to 190 °C. As for `C[C@H]1C(=O)C[C@@H]2C[C@H]1OO[C@]2(C)/C=C\c1ccc(C(F)(F)F)cc1Cl`, the figure is 160 °C. Take `Cc1ccc(SCc2c(C(C)C)nc(C(C)C)c(CO)c2-c2ccc(F)cc2)cc1`: the melting point was 90 to 91 °C. `CCOP(=O)(/C=C/c1cn(-c2ccccc2)nc1OCc1ccc(OCc2nc(-c3ccc(C(=O)O)cc3)oc2C)c(OC)c1)OCC` registered a melting point of 194 to 195 °C. As for `CC1(C)C=C(N2Cc3ccccc3C2=O)c2cc(S(=O)(=O)C(F)(F)C(F)(F)C(F)(F)F)ccc2O1`, the figure is 164 to 166 °C; as for `COC(=O)c1ccc2c(c(C)nn2C)c1C(=O)NC(C)(C(N)=O)C(C)C` (configuration not stated), 221 to 222 °C. The molecule `C[Si](C)(C)c1c(CCC=O)cnc2c1CCO2` returned a melting point of 59 to 60 °C. Molecule `Cc1ccc(C(C)NC(=O)C2CC(=O)c3cc(F)ccc3O2)cc1` (single isomer, unassigned; (+)) displayed a melting point of 157 °C. As for `O=[N+]([O-])c1c(Br)nn(Cc2ccc(Cl)cc2)c1Br`, the figure is 109 °C; as for `O=c1[nH]c2cc(O)ccc2n1CCN1CCN(c2cccc(C(F)(F)F)c2)CC1`, 275 °C. In turn, `Oc1ccc2c(c1)CCCC2Cc1c[nH]cn1` (configuration not stated) returned a melting point of 200 to 205 °C. In the case of `CCc1nc2c(C)cc(C)nc2n1Cc1ccc(C(=C(Br)c2nnn[nH]2)c2ccccc2)cc1`, the melting point was 149 to 151 °C. As for `O=C(NC[C@@H]1CN2C(=O)C[C@H]2O1)c1cc(F)ccc1F` (racemic), the figure is 88.8 to 90.7 °C; as for `Nc1nc(CN2C(=O)C3(COc4cc5c(cc43)OCO5)c3ccccc32)cs1` (configuration not stated), 230 to 235 °C; as for `OCc1nnc2n1-c1ccc(Cl)cc1C(c1ccccc1Cl)=NC2`, 236 to 239 °C. As for `CN(C)C(=O)c1cn(Cc2ccccc2Cl)nn1`, the figure is 120 to 121 °C; as for `Cc1cc(SC2=C(O)CC(CCc3ccc(O)cc3)(C3CCCCC3)OC2=O)c(C(C)(C)C)cc1OS(=O)(=O)c1ccc(C#N)cc1` (configuration not stated), 112 °C.

In turn, `C[N+](C)([O-])c1ccc(/C=C/c2c(F)cccc2F)cc1` registered a melting point of 100 to 103 °C. As for `CNc1nc(NC(=O)NS(=O)(=O)c2ccccc2Cl)nc(OC)n1`, the figure is 224 to 228 °C; as for `O=c1n(-c2ccc(C(F)(F)F)cc2)c(=O)n2n1CC(c1ccccc1)C2c1ccc(Cl)cc1` (configuration not stated), 148 to 150 °C; as for `CCCCN(C(=O)C(=O)O)c1cccc(NC(=O)C(=O)O)c1`, 232 °C. Next, `CC(CO)(Oc1ccc(C(=O)c2ccc(Cl)cc2)cc1)C(=O)O` (configuration not stated): 172 to 174 °C; `CC(=O)c1c(-c2ccc(O)cc2)oc2ccc(O)cc12`: 243 to 251 °C; `O=C1C(=O)N2CCOc3cccc1c32`: 188 °C.

Molecule `O=S(=O)(NCCO)c1c[nH]c(-c2ccc(Cl)cc2)n1` gave a melting point of 210 to 212 °C. Turning to `C[C@]12CC[C@H](O)CC1=CCC1C2CC[C@@]2(C)C1CC[C@@H]2c1c[nH]nn1` (some centres not stated), the melting point was in the range of 275 to 277 °C. The molecule `CCOC(=O)c1cc2cc(OCCCS(C)(=O)=O)cc(N(C)S(=O)(=O)c3ccccn3)c2[nH]1` came in with a melting point of 176 to 177 °C. As for `CC=Cc1cccc2c1OC(c1ccccc1)CC2=O` (configuration not stated), the figure is < 50 °C. Next, `COC(=O)c1nc(-c2ccc(Cl)cc2)cc(N(C)C)c1N`: 153 to 154 °C; `COc1cccc(Nc2n[nH]c3ncnc(Nc4cccc(Cl)c4)c23)c1`: 202 to 203 °C; `CCNC(=O)c1cccc(F)c1Nc1nc(Nc2cc3c(cc2OC)CCN(CC(=O)N(C)C)CC3)ncc1Cl`: 95 to 105 °C. In turn, `Cc1ccc(S(=O)(=O)OCC2CCc3sc(C(C)C)nc3C2)cc1` (configuration not stated) gave a melting point of 82 to 83 °C. For the molecule `CC(C)(C)C(NC(=O)c1ccc(Cl)cc1)NC(=NC#N)Nc1cccc(F)c1` (configuration not stated), the melting point fell in the range of 167 to 170 °C. As for `Cc1nc(NCCc2ccccc2)c2c(n1)N(c1ccccc1)CC2`, the melting point was 105 to 106 °C. `CCN(Cc1cc(Br)ccc1NCc1ccccc1)c1ccc(C(=O)O)nn1` gave a melting point of 176 °C. In turn, `O=C1CCOC(N2CCN=C(c3ccccc3Cl)c3cc(Cl)ccc32)=N1` had a melting point of 124 to 135 °C. For the molecule `O=C1CC2CC(O)(c3ccccc3)CC2C1` (configuration not stated), the melting point is 158 to 159 °C. As for `CC(=O)N1CCN(C(=S)Nc2cc3sc(C(C)(C)C)nc3cc2N2CCC(C)CC2)CC1`, the figure is 187 to 190 °C; as for `CCOC(=O)N(CC(=O)O)C(=O)c1c(OCC(F)(F)F)ccc2c(C(F)(F)F)c(OC)ccc12`, 166 to 167 °C; as for `CCOC(=O)c1ccc(C(=O)Nc2ccc3c(c2)N(C)C(=O)C(C)(C)C(=O)N3C)cc1`, > 270 °C. With `C=CCC(=CC(N)C(=O)O)CP(=O)(O)O` (configuration not stated), the melting point fell in the range of 154 to 157 °C. As for `NC(=O)c1nc(-c2cccc(C3=Nc4ccc(-n5cccc5)cc4NC(=O)C3)c2)cs1`, the figure is 267 to 269 °C. `CC(C)C[C@@H](C=O)NC(=O)[C@H](Cc1c[nH]cn1)NC(=O)[C@H](Cc1c[nH]c2ccccc12)NC(=O)OCc1ccccc1` came in with a melting point of 109 to 110 °C.

In turn, `Nc1nc(-c2cc(Cl)ccc2Cl)nc(N2CCSCC2)n1` had a melting point of 239 to 241 °C. As to `O=S(=O)(NCCN1CCOCC1)C(F)(F)F`, the melting point was 106 to 108 °C.

With `Cc1sc(S(=O)(=O)NC(C)(C)CO)cc1[N+](=O)[O-]`, the melting point worked out at 118 °C.

The molecule `N#CC(=NO)c1ccc(Cl)cc1Cl` yielded a melting point of 151 °C. Regarding `CSc1ccc(COc2cccc(C(=O)Nc3ccc(C#N)cn3)c2)cc1`, the melting point lay in the range of 146 to 147 °C. As for `CC(C)(C)c1cc(C2=Cc3cc(-c4ccccc4)ccc3C2)cc(C(C)(C)C)c1`, the figure is 122 to 123 °C. As for `O=C1c2nccc(Cl)c2C(=O)c2c(-c3ccccc3NC(=O)C(F)(F)F)ccnc21`, the melting point is 152 °C. As for `COc1ccc(COCc2nnc3n2-c2ccc(Cl)cc2C(c2ccccc2Cl)=NC3)cc1`, the figure is 235 to 237 °C; as for `CCOC(=O)C1=C(C(C)C)Nc2n[nH]cc2C1c1ccccc1Cl` (configuration not stated), 211 to 213 °C; as for `CC(C)OC(=O)CSc1ncnc2c(O)n(C)nc12`, 192 to 194 °C.

In turn, `Cc1ccc(S(=O)(=O)OCC2COc3ccc([N+](=O)[O-])c(C=CC#N)c3O2)cc1` (configuration not stated) yielded a melting point of 117 to 118 °C.

As a reminder, the melting point is the temperature, or range, at which the solid turns liquid.
